# Measurements: ChEMBL document CHEMBL1201862, “PubChem BioAssay data set” (2004)
# Calls of active or inactive are those of the source.
# Experiments:
# Vero = experiment: viability of Vero cells under compound – cytotoxicity control for flavivirus capping enzyme inhibitors (AID 588742); type: functional; details: Chlorocebus sabaeus
# H9c2 = experiment: cells; type: functional, cell-based; details: Rattus norvegicus, H9c2, Myocardium;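 note: confirmatory concentration-response retest of ultra-high-throughput screening hits for modulation of myocardial damage; cell death induced by hydrogen peroxide oxidative stress; compound pretreatment for 60 min then peroxide exposure for 2 h; potency is for protecting the cells against peroxide damage rather than for killing them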
# [1] = HIV-1 Vif–A3G interaction blockers – biochemical, TR-FRET, GST-Vif 1-94, biotin-A3G peptide, dose response retest, primary screen (AID 1117319); type: functional;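 note: TR-FRET signal of purified GST-Vif binding a biotinylated A3G peptide; inhibitors lower the FRET signal by blocking Vif and A3G binding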
# [2] = target: T1, Polyadenylate-binding protein 1 (Homo sapiens, UniProt P11940); experiment: MLLE binding blockers, Cy5 peptide tracer – biochemical, fluorescence polarization, Cy5-PAM2 peptide, secondary, miRNA deadenylation inhibitor project, dose response (AID 602260); type: functional; details: read-out: IC50_Mean
# T1 sequence (P11940 whole entry, the tested form may be a part): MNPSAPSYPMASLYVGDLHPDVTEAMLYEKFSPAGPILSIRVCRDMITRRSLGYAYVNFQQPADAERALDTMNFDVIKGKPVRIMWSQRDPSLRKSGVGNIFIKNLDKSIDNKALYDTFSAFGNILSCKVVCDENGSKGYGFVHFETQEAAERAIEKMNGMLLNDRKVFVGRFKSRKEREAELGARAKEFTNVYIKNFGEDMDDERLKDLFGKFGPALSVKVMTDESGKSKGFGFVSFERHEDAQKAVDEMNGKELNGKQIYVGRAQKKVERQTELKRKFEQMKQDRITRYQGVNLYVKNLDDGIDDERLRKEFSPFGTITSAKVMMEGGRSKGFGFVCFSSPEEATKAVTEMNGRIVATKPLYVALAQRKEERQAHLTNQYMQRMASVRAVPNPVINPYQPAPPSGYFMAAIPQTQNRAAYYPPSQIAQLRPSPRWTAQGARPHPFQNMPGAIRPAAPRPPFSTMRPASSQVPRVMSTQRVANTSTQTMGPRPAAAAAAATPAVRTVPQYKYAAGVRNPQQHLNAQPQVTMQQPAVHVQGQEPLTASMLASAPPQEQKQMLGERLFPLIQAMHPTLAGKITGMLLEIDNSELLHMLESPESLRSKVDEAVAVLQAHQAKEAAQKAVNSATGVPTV
# [3] = target: T1, Polyadenylate-binding protein 1; experiment: MLLE domain peptide-binding blockers, IC50 – biochemical, fluorescence polarization, FITC-PAM2 peptide, dose response (AID 602259); type: functional; details: read-out: IC50_Mean
# Beta-galactosidase = Beta-galactosidase (Escherichia coli, UniProt Q8VNN2); experiment: PubChem AID 485352; type: functional
# Chain of Beta-galactosidase (Q8VNN2 whole entry): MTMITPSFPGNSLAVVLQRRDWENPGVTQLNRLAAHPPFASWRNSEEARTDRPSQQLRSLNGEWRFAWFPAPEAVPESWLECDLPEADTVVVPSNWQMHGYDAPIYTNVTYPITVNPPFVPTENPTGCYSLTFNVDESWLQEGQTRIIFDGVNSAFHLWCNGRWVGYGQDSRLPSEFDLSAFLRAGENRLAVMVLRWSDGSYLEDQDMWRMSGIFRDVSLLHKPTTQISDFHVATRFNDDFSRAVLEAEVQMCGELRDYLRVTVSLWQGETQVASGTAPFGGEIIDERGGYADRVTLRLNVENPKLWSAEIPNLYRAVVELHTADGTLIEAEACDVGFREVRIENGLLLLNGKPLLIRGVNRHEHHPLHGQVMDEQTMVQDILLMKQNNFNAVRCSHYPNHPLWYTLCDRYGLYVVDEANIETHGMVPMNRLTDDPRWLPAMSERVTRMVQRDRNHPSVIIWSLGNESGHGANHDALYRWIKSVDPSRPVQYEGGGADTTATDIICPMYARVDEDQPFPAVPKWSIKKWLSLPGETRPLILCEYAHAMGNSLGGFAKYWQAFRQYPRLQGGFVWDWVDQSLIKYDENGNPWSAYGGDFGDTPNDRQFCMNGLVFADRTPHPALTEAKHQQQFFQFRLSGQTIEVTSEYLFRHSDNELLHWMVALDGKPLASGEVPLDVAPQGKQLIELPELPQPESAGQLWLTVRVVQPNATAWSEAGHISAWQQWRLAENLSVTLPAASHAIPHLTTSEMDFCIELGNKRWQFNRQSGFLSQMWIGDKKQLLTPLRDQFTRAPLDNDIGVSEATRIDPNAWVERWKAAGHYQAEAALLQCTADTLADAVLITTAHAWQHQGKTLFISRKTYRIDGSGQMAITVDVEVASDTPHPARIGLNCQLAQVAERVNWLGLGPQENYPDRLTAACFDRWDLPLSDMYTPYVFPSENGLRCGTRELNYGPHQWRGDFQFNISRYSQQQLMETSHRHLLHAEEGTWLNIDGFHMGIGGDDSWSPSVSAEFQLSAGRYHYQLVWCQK
# [4] = target: T2, Type-1 angiotensin II receptor (Homo sapiens, UniProt P30556); experiment: antagonism of angiotensin II type 1 receptor – cell-based, uHTS hits, selectivity assay for APJ receptor antagonist project, dose response (AID 463214); type: functional;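 note: antagonist potency against angiotensin II stimulated AT1 response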
# T2 sequence (P30556 whole entry): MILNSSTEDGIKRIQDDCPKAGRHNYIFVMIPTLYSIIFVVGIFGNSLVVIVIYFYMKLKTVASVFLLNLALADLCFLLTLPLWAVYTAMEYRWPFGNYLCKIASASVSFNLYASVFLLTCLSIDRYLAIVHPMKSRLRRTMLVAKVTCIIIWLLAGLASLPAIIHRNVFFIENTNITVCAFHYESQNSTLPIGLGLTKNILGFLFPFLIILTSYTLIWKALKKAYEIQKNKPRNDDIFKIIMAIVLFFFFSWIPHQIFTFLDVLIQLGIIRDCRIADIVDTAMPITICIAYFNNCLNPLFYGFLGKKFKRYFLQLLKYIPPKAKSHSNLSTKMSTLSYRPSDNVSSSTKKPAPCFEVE
# [5] = target: 26S proteasome non-ATPase regulatory subunit 14 (Homo sapiens, UniProt O00487); experiment: inhibition of proteasome subunit RPN11 – biochemical, fluorescence polarization, uHTS hits, confirmation (AID 602368); type: functional
# Chain of 26S proteasome non-ATPase regulatory subunit 14 (O00487 whole entry): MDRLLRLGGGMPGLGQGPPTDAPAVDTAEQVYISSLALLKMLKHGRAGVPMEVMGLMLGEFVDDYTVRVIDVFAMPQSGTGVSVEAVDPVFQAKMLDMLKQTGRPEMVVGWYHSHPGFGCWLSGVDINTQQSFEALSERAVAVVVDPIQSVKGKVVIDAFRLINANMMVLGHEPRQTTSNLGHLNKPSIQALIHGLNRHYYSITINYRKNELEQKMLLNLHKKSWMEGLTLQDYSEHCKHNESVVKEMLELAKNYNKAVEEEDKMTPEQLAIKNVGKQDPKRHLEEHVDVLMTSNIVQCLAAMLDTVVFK
# [6] = target: 72 kDa type IV collagenase (Homo sapiens, UniProt P08253); experiment: Dose Response validation of uHTS RPN11 inhibitor hits using a MMP-2 Fluorescence assay.; type: functional
# Chain of 72 kDa type IV collagenase (P08253 whole entry): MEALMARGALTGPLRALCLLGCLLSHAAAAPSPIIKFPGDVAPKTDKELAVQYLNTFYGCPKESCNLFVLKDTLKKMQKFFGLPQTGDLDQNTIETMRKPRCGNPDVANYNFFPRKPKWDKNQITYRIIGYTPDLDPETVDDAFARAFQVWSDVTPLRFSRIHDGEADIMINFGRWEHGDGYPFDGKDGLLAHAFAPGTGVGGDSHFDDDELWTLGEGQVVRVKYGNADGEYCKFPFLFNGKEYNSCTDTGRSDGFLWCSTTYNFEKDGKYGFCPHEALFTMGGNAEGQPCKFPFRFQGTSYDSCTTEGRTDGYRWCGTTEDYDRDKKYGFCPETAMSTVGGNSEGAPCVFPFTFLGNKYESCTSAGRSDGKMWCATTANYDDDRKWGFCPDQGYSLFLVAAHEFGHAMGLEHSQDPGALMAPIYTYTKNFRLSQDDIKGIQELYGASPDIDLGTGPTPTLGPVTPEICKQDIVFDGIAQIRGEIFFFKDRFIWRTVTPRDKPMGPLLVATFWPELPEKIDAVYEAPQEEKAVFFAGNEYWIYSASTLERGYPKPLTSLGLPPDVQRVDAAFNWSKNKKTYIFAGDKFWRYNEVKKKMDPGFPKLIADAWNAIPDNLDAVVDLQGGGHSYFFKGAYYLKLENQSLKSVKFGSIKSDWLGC
# Prothrombin = Prothrombin (Bos taurus, UniProt P00735); experiment: thrombin protease inhibitors – biochemical, fluorescence polarization, uHTS hits, dose response (AID 602369); type: functional
# [7] = blockers of HIV-1 envelope-mediated cell-cell fusion – cherry-pick, dose response (AID 652057); type: functional, cell-based
# [8] = HIV-1 AD8 envelope cell-cell fusion blockers – cherry-pick, dose response (AID 652062); type: functional, cell-based;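 note: luciferase signal from cell-cell fusion driven by HIV-1 clade B AD8 Env; potency is for inhibitors of fusion seen as a drop in luminescence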
# [9] = target: T3, RNA-binding protein pos-1 (Caenorhabditis elegans, UniProt G5EF15); experiment: disruptors of C. elegans POS-1 RNA interaction – biochemical, fluorescence polarization, dose response (AID 1964);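 note: purified POS-1 fused to maltose binding protein made in E. coli; potency of compounds blocking POS-1 binding to fluorescent RNA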
# T3 sequence (G5EF15 whole entry): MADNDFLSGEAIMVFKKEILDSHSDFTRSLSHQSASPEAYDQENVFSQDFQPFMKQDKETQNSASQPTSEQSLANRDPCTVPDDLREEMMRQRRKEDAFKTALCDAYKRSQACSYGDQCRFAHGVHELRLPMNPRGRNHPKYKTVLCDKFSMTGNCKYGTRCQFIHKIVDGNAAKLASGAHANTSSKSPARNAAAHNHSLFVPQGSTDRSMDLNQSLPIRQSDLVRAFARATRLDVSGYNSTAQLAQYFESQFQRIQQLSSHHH
# [10] = target: T4, Zinc finger protein mex-5 (Caenorhabditis elegans, UniProt Q9XUB2); experiment: potency of MEX-5 RNA-binding blockers – biochemical, C. elegans, fluorescence polarization, dose response (AID 1960)
# T4 sequence (Q9XUB2 whole entry): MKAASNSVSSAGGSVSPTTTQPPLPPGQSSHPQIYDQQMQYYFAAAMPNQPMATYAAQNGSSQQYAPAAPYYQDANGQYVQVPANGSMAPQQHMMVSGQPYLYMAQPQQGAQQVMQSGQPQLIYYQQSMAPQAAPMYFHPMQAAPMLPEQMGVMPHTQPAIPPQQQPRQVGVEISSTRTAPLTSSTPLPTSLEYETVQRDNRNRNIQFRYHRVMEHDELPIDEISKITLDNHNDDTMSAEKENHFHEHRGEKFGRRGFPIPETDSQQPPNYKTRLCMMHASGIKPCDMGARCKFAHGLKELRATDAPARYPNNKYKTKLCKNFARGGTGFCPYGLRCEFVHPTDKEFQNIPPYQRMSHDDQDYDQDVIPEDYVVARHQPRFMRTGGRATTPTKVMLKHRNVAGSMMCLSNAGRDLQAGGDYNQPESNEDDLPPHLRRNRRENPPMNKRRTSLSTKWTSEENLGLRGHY
# [11] = target: T5, Endoribonuclease toxin MazF (Escherichia coli K-12, UniProt P0AE70); experiment: activation of MazEF endoribonuclease cleavage – biochemical, fluorescence, single-stranded RNA substrate, uHTS hits, dose response (AID 588481); type: functional
# T5 sequence (P0AE70 whole entry): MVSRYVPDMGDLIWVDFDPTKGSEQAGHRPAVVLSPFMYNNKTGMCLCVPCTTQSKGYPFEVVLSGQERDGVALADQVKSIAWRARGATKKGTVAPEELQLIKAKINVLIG
# [12] = target: T5, Endoribonuclease toxin MazF; experiment: substrate-only fluorescence increase artefacts – biochemical, single-stranded RNase substrate, counter-screen for MazEF activator project, dose response (AID 588502); type: functional
# [13] = growth inhibition of yeast DHODH-expressing 3D7 parasites – SYBR Green, dry powder samples, dose response (AID 1159570); type: functional, cell-based;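 note: parasite growth measured after 72 hours of compound exposure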
# [14] = P. falciparum Dd2 growth inhibitors, dose response, SYBR Green, cherry-picked samples (AID 1159567); type: functional, cell-based
# [15] = Dd2 malaria parasite growth inhibition potency – SYBR Green, dry powder samples, dose response (AID 1159566); type: functional, cell-based;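 note: potency for growth inhibition with lower SYBR green DNA signal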
# [16] = growth inhibition of PfATP4-mutant resistant parasites – NITD609-resistant line, SYBR Green, dry powder, dose response (AID 1159571); type: functional, cell-based;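 note: parasites synchronized at ring stage by sorbitol before testing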
# [17] = Trypanosoma cruzi growth suppression in host cells – NIH3T3 host cells, beta-gal luminescence, confirmation (AID 2044); type: functional, cell-based;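 note: intracellular parasites grown in NIH/3T3 mouse fibroblasts as host cells; luminescent beta-galactosidase reporter signal from transgenic T. cruzi replicating inside host cells; inhibitors lower the luminescence signal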
# [18] = NIH3T3 cell viability loss – ATP luminescence, mouse fibroblasts, counter-screen, dose response (AID 2010); type: functional, cell-based;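 note: cells exposed to compound for about 90 hours before reading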
# [19] = target: T6, Histone-lysine N-methyltransferase NSD2 (Homo sapiens, UniProt O96028); type: biochemical
# T6 sequence (O96028 whole entry): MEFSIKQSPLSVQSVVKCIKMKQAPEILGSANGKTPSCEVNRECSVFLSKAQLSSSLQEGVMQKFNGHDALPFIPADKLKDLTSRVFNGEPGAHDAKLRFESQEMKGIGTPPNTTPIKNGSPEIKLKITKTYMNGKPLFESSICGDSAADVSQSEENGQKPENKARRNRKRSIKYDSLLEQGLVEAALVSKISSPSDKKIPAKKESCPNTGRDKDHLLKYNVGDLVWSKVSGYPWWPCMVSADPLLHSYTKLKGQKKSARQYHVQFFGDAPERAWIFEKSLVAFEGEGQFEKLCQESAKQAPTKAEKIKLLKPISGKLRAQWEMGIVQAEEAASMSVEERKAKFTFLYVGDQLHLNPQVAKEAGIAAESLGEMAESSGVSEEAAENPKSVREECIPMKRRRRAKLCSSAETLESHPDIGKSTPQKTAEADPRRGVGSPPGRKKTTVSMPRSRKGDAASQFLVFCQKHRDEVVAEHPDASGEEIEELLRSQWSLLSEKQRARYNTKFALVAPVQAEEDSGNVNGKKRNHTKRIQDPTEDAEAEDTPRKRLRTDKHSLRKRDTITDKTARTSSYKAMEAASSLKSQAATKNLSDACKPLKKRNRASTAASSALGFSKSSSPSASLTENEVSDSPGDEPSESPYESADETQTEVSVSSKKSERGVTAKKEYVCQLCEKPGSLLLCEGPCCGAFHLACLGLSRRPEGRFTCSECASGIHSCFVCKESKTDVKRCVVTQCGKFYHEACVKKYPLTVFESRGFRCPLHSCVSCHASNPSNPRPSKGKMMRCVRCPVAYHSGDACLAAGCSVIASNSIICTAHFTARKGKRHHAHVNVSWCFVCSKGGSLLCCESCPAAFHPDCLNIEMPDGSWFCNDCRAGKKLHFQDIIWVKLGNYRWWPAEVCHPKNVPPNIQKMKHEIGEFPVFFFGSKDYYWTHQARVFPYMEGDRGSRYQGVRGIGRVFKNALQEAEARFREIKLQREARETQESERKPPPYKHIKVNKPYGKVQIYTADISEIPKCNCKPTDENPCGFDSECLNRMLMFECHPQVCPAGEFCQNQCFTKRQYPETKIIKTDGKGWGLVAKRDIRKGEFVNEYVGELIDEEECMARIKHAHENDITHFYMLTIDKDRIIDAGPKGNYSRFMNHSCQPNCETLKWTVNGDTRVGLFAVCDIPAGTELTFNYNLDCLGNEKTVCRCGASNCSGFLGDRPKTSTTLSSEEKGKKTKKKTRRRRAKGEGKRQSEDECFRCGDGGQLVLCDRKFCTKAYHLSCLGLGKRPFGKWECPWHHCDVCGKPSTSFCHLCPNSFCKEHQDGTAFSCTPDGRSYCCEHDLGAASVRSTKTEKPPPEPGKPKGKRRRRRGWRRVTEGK
# [20] = target: T7, Rac GTPase-activating protein 1 (Homo sapiens, UniProt Q9H0H5); experiment: blockers of MgcRacGAP-driven Rac1 GTP hydrolysis – biochemical, ADP Hunter fluorescence, primary and confirmatory, confirmation (AID 624330); type: functional
# T7 sequence (Q9H0H5 whole entry): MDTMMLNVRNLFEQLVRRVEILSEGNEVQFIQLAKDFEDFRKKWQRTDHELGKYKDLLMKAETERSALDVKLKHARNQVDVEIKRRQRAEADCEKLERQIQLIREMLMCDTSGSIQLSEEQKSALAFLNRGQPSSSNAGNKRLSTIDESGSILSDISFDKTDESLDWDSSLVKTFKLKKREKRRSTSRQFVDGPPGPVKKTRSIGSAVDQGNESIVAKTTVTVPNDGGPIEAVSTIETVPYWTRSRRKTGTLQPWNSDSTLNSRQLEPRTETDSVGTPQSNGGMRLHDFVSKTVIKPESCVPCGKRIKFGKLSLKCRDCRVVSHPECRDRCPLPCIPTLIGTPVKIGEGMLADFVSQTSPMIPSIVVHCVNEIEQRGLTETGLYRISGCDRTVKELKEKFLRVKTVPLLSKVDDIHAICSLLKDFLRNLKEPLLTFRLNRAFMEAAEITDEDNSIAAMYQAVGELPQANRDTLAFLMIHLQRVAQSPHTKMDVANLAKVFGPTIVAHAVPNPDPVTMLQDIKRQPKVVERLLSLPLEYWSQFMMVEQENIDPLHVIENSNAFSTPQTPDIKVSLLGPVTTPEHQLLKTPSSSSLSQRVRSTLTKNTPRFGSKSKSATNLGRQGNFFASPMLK
smiles,measurement,setting,value
CNC(=O)/C(C#N)=C/c1c(N(Cc2ccccc2)Cc2ccccc2)nc2ccccn2c1=O,CC50,Vero,> 40 µM (active)
same,IC50,H9c2,> 79 µM (inactive)
CC1SC(N/N=C/c2ccco2)=NC1=O (configuration not stated),IC50,[1],> 100 µM (active)
COc1cc(C(=S)N2CCOCC2)ccc1O [VANITIOLIDE],IC50,[2],> 66 µM (inactive)
same,IC50,[3],> 66 µM (inactive)
C/C(=N\NC(=S)Nc1cccc(C)c1)c1ccccc1,EC50,Beta-galactosidase,> 40 µM (inactive)
same,IC50,[4],> 40 µM (not active)
same,IC50,[2],> 66 µM (inactive)
same,IC50,[3],> 66 µM (inactive)
CCN(CC)CCOC(=O)c1ccc(NC=C2C(=O)NC(=O)NC2=O)cc1,IC50,[5],22.4 µM (active)
same,IC50,[6],> 100 µM (inactive)
same,IC50,Prothrombin,32.4 µM (active)
Cn1cc(/C=N\O)nc2c(=O)n(-c3ccccc3)c(=O)nc1-2,IC50,[2],> 66 µM (inactive)
same,IC50,[3],> 66 µM (inactive)
CC(c1nc(O)c2ccccc2n1)N(C)CCOc1ccc(Cl)cc1 (configuration not stated),AC50,[7],57.3 µM (active)
same,AC50,[8],28.3 µM (active)
O=c1oc2ccccc2cc1-c1nc(-c2cccs2)cs1,EC50,[9],15.6 µM (inconclusive)
same,EC50,[10],5.43 µM (active)
same,EC50,[11],> 99 µM (inactive)
same,EC50,[12],> 99 µM (inactive)
Cc1ccc(S(=O)(=O)N(C)C[C@@H]2OCc3ccccc3-c3c(n(C)c4ccccc34)C(=O)N([C@@H](C)CO)C[C@@H]2C)cc1,AC50,[13],0.427 µM (active)
same,AC50,[14],0.611 µM (active)
same,AC50,[15],0.346 µM (active)
same,AC50,[16],0.291 µM (active)
Cc1cc(NC(=O)/C(C#N)=C/c2ccc(-c3ccc(SC(F)F)cc3)o2)n(-c2ccccc2)n1,EC50,[9],22.9 µM (active)
same,EC50,[10],25.8 µM (active)
same,EC50,[11],> 99 µM (inactive)
same,EC50,[12],48.9 µM (inactive)
COCCNC(=O)c1c(NC(=O)c2nc(SC)ncc2Cl)sc2c1CCCC2,IC50,[5],17.6 µM (active)
same,IC50,[6],> 100 µM (inactive)
same,IC50,Prothrombin,50 µM (active)
CNCCCOc1cccc(Oc2ccccc2)c1,EC50,[17],1.29 µM (active)
same,EC50,[18],> 30 µM (not active)
same,AC50,[19],> 20 µM (inactive)
O=C(CSc1nc2ccccc2o1)Nc1nc2c(s1)CCCC2,IC50,[5],30.6 µM (active)
same,IC50,[6],> 100 µM (inactive)
same,IC50,Prothrombin,24 µM (active)
CSc1nc2oc3c(c2c2nncn12)CC(C)(C)SC3,IC50,[2],> 66 µM (inactive)
same,IC50,[3],> 66 µM (inactive)
N=C1/C(=C\c2ccc(O)c(O)c2)C(=O)N=C2SC(CC(=O)N3CCOCC3)=NN12,IC50,[20],63.6 µM (active)
same,AC50,[19],1.79 µM (active)
O=S(=O)(Nc1ccc2c(c1)nc1n2CCN(Cc2ccccc2)C1)c1ccc(Cl)cc1,IC50,[1],> 100 µM (active)
